Legend:
Type in all cases: cell-based
[1] = target: proteins of U3A human fibrosarcoma cells (4462 proteins detected) (Homo sapiens, UniProt Q8TA86); conditions: protein RP9, U3A cells
[2] = target: proteins of U3A human fibrosarcoma cells (4462 proteins detected) (Homo sapiens, UniProt Q9Y6H1); conditions: protein CHCHD2; CHCHD2P9; U3A, 10 μM, 2 h
[3] = target: proteins of U3A human fibrosarcoma cells (4462 proteins detected) (Homo sapiens, UniProt Q9H8M7); conditions: protein FAM188A, U3A cells
[4] = target: proteins of U3A human fibrosarcoma cells (4462 proteins detected) (Homo sapiens, UniProt Q9H2U1); conditions: protein DHX36, U3A cells
[5] = target: proteins of U3A human fibrosarcoma cells (4462 proteins detected) (Homo sapiens, UniProt Q99661); conditions: protein KIF2C; U3A cells
[6] = target: proteins of U3A human fibrosarcoma cells (4462 proteins detected) (Homo sapiens, UniProt Q14353); conditions: protein GAMT; U3A, 10 μM, 2 h
[7] = target: proteins of U3A human fibrosarcoma cells (4462 proteins detected) (Homo sapiens, UniProt O00244); conditions: protein ATOX1, U3A cells
[8] = target: proteins of U3A human fibrosarcoma cells (4462 proteins detected) (Homo sapiens, UniProt O00622); conditions: protein CYR61; U3A cells
[9] = target: proteins of U3A human fibrosarcoma cells (4462 proteins detected) (Homo sapiens, UniProt O60462); conditions: protein NRP2; soluble abundance after heat, U3A cells
[10] = target: proteins of U3A human fibrosarcoma cells (4462 proteins detected) (Homo sapiens, UniProt Q16637); conditions: protein SMN1; SMN2; U3A, 10 μM, 2 h
[11] = target: proteins of U3A human fibrosarcoma cells (4462 proteins detected) (Homo sapiens, UniProt P62805); conditions: protein HIST1H4A; U3A, 10 μM, 2 h
[12] = target: proteins of U3A human fibrosarcoma cells (4462 proteins detected) (Homo sapiens, UniProt Q9ULU4); conditions: protein ZMYND8; U3A cells
[13] = target: proteins of U3A human fibrosarcoma cells (4462 proteins detected) (Homo sapiens, UniProt Q13596); conditions: protein SNX1; U3A cells
[14] = target: proteins of U3A human fibrosarcoma cells (4462 proteins detected) (Homo sapiens, UniProt P20042); conditions: protein EIF2S2; U3A cells
[15] = target: proteins of U3A human fibrosarcoma cells (4462 proteins detected) (Homo sapiens, UniProt Q53H96); conditions: protein PYCRL; U3A, 10 μM, 2 h
[16] = target: proteins of U3A human fibrosarcoma cells (4462 proteins detected) (Homo sapiens, UniProt Q16658); conditions: protein FSCN1, U3A cells
[17] = target: proteins of U3A human fibrosarcoma cells (4462 proteins detected) (Homo sapiens, UniProt Q92797); conditions: protein SYMPK; soluble abundance after heat, U3A cells
[18] = target: proteins of U3A human fibrosarcoma cells (4462 proteins detected) (Homo sapiens, UniProt O75792); conditions: protein RNASEH2A; U3A cells
[19] = target: proteins of U3A human fibrosarcoma cells (4462 proteins detected) (Homo sapiens, UniProt Q16763); conditions: protein UBE2S; U3A, 10 μM, 2 h
[20] = target: proteins of U3A human fibrosarcoma cells (4462 proteins detected) (Homo sapiens, UniProt Q7Z5L2); conditions: protein R3HCC1L; U3A, 10 μM, 2 h
[21] = target: proteins of U3A human fibrosarcoma cells (4462 proteins detected) (Homo sapiens, UniProt Q9NX58); conditions: protein LYAR; U3A cells
[22] = target: proteins of U3A human fibrosarcoma cells (4462 proteins detected) (Homo sapiens, UniProt P38919); conditions: protein EIF4A3; soluble abundance after heat, U3A cells
[23] = target: proteins of U3A human fibrosarcoma cells (4462 proteins detected) (Homo sapiens, UniProt Q9NZ52); conditions: protein GGA3; soluble abundance after heat, U3A cells
[24] = target: proteins of U3A human fibrosarcoma cells (4462 proteins detected) (Homo sapiens, UniProt P28482); conditions: protein MAPK1; soluble abundance after heat, U3A cells
[25] = target: proteins of U3A human fibrosarcoma cells (4462 proteins detected) (Homo sapiens, UniProt Q96SN8); conditions: protein CDK5RAP2; U3A, 10 μM, 2 h
[26] = target: proteins of U3A human fibrosarcoma cells (4462 proteins detected) (Homo sapiens, UniProt P50402); conditions: protein EMD; soluble abundance after heat, U3A cells
[27] = target: proteins of U3A human fibrosarcoma cells (4462 proteins detected) (Homo sapiens, UniProt P05023); conditions: protein ATP1A1; U3A, 10 μM, 2 h
[28] = target: proteins of U3A human fibrosarcoma cells (4462 proteins detected) (Homo sapiens, UniProt P27816); conditions: protein MAP4, U3A cells
[29] = target: proteins of U3A human fibrosarcoma cells (4462 proteins detected) (Homo sapiens, UniProt Q6AI12); conditions: protein ANKRD40, U3A cells
Chain of proteins of U3A human fibrosarcoma cells (4462 proteins detected) (Homo sapiens, UniProt Q6AI12) (Q6AI12 whole entry): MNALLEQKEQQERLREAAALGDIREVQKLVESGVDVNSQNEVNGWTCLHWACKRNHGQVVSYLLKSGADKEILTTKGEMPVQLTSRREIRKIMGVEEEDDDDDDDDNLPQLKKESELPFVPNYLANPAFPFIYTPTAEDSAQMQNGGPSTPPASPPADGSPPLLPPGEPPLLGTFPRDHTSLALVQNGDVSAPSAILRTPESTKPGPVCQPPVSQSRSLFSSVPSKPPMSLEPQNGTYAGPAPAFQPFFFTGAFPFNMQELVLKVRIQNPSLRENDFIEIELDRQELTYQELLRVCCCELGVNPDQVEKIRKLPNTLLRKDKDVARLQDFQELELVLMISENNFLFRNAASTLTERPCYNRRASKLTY

Chain of proteins of U3A human fibrosarcoma cells (4462 proteins detected) (Homo sapiens, UniProt Q99661) (Q99661 whole entry): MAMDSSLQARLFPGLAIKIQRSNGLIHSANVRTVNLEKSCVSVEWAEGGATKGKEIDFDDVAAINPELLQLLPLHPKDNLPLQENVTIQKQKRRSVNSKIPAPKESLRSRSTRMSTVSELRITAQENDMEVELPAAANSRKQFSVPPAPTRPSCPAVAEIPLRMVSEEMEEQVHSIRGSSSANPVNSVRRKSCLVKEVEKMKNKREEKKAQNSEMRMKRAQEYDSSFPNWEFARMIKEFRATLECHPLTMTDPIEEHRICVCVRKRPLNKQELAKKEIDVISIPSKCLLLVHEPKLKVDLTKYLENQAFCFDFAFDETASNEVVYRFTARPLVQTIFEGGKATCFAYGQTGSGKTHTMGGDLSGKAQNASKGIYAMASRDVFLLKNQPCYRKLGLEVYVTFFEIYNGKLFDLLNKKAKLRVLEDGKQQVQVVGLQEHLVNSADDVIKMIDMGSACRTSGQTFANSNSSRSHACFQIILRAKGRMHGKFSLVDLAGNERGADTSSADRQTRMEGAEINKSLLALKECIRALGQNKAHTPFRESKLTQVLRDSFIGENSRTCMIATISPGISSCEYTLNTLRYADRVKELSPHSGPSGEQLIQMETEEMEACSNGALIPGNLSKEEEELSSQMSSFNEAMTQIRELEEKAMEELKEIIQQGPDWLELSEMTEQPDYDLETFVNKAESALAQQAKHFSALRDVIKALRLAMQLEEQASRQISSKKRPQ
Chain of proteins of U3A human fibrosarcoma cells (4462 proteins detected) (Homo sapiens, UniProt Q16763) (Q16763 whole entry): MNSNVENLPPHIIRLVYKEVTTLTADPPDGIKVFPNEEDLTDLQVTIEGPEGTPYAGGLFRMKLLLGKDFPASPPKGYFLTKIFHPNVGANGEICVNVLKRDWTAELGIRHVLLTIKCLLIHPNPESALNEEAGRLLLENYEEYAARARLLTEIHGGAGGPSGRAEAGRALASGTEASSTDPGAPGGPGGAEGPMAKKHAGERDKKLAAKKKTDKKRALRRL
Chain of proteins of U3A human fibrosarcoma cells (4462 proteins detected) (Homo sapiens, UniProt Q92797) (Q92797 whole entry): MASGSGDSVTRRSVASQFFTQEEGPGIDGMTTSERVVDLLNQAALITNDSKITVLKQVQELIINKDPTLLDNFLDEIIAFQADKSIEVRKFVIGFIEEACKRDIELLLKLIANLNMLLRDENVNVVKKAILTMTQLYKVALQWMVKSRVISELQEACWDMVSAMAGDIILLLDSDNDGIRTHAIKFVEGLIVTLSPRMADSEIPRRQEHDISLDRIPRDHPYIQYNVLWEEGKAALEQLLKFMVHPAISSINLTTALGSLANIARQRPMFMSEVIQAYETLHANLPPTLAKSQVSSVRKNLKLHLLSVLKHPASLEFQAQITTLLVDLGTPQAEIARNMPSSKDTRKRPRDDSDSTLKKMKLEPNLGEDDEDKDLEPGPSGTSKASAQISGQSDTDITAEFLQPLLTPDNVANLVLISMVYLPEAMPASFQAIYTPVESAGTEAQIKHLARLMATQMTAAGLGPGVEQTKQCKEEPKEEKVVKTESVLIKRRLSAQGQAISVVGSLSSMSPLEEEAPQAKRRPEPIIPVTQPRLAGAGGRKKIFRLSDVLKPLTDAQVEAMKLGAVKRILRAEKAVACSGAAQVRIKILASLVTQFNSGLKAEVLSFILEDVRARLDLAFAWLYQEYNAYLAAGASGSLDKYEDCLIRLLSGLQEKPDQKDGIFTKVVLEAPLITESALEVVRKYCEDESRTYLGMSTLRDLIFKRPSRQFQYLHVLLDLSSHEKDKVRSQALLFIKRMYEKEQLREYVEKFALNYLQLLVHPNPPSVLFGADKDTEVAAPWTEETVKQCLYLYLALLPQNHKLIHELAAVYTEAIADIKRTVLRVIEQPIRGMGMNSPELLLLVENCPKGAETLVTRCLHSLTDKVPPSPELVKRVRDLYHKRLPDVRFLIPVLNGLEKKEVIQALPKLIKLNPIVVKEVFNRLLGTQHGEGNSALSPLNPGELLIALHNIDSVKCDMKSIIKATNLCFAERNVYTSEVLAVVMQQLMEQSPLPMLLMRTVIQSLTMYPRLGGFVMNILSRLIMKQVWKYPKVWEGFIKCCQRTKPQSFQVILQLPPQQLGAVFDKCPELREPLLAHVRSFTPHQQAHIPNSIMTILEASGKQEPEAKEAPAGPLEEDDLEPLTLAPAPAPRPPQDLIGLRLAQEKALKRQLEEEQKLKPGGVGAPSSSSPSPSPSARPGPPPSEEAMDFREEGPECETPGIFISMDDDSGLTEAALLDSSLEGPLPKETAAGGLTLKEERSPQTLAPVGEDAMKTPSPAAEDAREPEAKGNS
Chain of proteins of U3A human fibrosarcoma cells (4462 proteins detected) (Homo sapiens, UniProt Q13596) (Q13596 whole entry): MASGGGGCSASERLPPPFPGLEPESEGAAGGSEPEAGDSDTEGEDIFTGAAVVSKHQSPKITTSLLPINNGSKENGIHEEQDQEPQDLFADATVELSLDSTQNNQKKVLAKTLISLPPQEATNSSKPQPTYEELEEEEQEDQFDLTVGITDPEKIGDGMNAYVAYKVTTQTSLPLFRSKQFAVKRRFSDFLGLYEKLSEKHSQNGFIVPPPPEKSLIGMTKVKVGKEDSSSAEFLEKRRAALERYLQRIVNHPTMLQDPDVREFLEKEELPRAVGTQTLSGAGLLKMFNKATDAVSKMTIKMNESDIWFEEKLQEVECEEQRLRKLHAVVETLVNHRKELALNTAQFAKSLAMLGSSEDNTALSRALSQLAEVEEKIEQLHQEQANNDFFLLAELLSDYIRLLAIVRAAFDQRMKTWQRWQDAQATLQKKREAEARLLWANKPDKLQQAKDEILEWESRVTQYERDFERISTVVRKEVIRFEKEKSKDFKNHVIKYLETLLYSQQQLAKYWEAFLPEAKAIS
Chain of proteins of U3A human fibrosarcoma cells (4462 proteins detected) (Homo sapiens, UniProt P38919) (P38919 whole entry): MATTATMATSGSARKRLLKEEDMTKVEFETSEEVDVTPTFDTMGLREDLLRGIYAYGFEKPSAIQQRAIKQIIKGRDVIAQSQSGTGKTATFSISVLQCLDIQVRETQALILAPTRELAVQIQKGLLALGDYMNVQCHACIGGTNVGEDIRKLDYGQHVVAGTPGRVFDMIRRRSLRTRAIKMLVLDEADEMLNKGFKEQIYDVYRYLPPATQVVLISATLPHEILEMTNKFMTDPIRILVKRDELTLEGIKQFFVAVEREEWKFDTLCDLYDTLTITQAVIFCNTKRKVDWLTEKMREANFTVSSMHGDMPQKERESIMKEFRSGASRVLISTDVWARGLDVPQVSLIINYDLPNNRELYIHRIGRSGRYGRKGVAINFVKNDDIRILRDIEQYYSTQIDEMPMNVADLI
Chain of proteins of U3A human fibrosarcoma cells (4462 proteins detected) (Homo sapiens, UniProt O00622) (O00622 25-381): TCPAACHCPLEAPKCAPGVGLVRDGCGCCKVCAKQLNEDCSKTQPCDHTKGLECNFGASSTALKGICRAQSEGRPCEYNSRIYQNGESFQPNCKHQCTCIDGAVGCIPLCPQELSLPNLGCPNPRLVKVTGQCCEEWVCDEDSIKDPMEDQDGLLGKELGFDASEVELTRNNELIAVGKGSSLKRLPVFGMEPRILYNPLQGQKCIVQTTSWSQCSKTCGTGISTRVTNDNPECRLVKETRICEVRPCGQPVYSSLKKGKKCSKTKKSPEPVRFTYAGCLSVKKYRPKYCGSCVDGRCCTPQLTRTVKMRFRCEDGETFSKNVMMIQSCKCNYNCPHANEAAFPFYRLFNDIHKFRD
Chain of proteins of U3A human fibrosarcoma cells (4462 proteins detected) (Homo sapiens, UniProt Q9Y6H1) (Q9Y6H1 whole entry): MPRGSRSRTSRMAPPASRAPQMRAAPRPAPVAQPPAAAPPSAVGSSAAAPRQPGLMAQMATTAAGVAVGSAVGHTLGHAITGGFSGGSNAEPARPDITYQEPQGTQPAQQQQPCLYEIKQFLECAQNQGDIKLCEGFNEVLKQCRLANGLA
Chain of proteins of U3A human fibrosarcoma cells (4462 proteins detected) (Homo sapiens, UniProt Q9NZ52) (Q9NZ52 whole entry): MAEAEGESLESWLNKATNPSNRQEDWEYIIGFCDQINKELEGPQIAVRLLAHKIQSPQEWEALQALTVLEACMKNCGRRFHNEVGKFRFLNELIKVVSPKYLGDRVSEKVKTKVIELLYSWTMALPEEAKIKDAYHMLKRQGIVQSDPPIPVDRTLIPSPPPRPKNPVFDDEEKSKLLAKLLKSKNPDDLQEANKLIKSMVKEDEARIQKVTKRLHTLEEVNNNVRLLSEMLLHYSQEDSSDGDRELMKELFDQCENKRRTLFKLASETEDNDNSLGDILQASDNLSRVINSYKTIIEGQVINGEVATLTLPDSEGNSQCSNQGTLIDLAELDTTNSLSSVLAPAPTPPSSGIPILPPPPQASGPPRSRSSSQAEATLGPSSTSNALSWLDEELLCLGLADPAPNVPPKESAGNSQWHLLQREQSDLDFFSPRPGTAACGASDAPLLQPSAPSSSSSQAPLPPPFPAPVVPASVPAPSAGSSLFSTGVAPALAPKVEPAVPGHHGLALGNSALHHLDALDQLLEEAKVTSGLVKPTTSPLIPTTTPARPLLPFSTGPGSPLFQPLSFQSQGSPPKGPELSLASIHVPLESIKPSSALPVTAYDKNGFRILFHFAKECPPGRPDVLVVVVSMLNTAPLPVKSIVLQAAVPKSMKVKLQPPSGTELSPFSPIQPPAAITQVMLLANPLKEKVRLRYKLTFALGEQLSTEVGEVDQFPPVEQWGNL
Chain of proteins of U3A human fibrosarcoma cells (4462 proteins detected) (Homo sapiens, UniProt O00244) (O00244 whole entry): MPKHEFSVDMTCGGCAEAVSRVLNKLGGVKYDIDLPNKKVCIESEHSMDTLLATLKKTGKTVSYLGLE

CCc1nc(N)nc(N)c1-c1ccc(Cl)cc1 [pyrimethamine]
Log2 (PYR/DMSO) [1]: -0.05
Log2 (PYR/DMSO), CHCHD2; CHCHD2P9 [2]: 0.36
Log2 (PYR/DMSO) [3]: -0.04
Log2 (PYR/DMSO) [4]: -0.03
Log2 (PYR/DMSO) [5]: 0.17
Log2 (PYR/DMSO), GAMT [6]: -0.27
Log2 (PYR/DMSO) [7]: -0.04
Log2 (PYR/DMSO) [8]: 0.21
Log2 (PYR/DMSO) [9]: 0.14
Log2 (PYR/DMSO), SMN1; SMN2 [10]: -0.18
Log2 (PYR/DMSO), HIST1H4A [11]: 0.28
Log2 (PYR/DMSO) [12]: 0.16
Log2 (PYR/DMSO) [13]: 0.17
Log2 (PYR/DMSO) [14]: 0.17
Log2 (PYR/DMSO), PYCRL [15]: -0.15
Log2 (PYR/DMSO) [16]: -0.04
Log2 (PYR/DMSO) [17]: 0.15
Log2 (PYR/DMSO) [18]: 0.16
Log2 (PYR/DMSO), UBE2S [19]: 0.25
Log2 (PYR/DMSO), R3HCC1L [20]: -0.20
Log2 (PYR/DMSO) [21]: 0.18
Log2 (PYR/DMSO) [22]: 0.15
Log2 (PYR/DMSO) [23]: 0.14
Log2 (PYR/DMSO) [24]: 0.15
Log2 (PYR/DMSO), CDK5RAP2 [25]: -0.21
Log2 (PYR/DMSO) [26]: 0.15
Log2 (PYR/DMSO), ATP1A1 [27]: 0.37
Log2 (PYR/DMSO) [28]: -0.05
Log2 (PYR/DMSO) [29]: -0.04

From paper PMC8800111 (The Journal of Biological Chemistry, 2021)
